Columns and labels:
Assay in all cases: relative viability (nuclei count vs DMSO), 5 days (fraction); higher = more cells survive
[1] = compound: COc1cc([C@@H]2c3cc4c(cc3[C@@H](O[C@@H]3O[C@@H]5CO[C@@H](C)O[C@H]5[C@H](O)[C@H]3O)[C@H]3COC(=O)[C@H]23)OCO4)cc(OC)c1O [Etoposide] + CC(=O)c1c(C)c2cnc(Nc3ccc(N4CCNCC4)cn3)nc2n(C2CCCC2)c1=O [Palbociclib] (partner 0.5 µM)
Method in brief: (§1)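 For relative viability, nuclei counts in treated wells were divided by those in vehicle wells. Lung cancer cell lines had been pin-tool dosed in 1536-well plates the day after seeding and cultured for 5 days, then fixed and stained in one step (final 0.05% Triton X-100, 1% formaldehyde, 1 ug/ml Hoechst) and imaged at 4×. Doses were one drug alone or a fixed anchor-drug dose plus five library-drug doses (not always all listed) in √10 steps, and values are duplicate-plate medians.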

[2] = compound: COc1cc([C@@H]2c3cc4c(cc3[C@@H](O[C@@H]3O[C@@H]5CO[C@@H](C)O[C@H]5[C@H](O)[C@H]3O)[C@H]3COC(=O)[C@H]23)OCO4)cc(OC)c1O [Etoposide] + C[C@]1(O)C[C@@H](c2nc(-c3ccc4ccc(-c5ccccc5)nc4c3)c3c(N)nccn32)C1 [Linsitinib] (partner 1 µM)
Method in brief: as §1

[3] = compound: CC1=C(N=C(N=C1N)[C@H](CC(=O)N)NC[C@@H](C(=O)N)N)C(=O)N[C@@H]([C@H](C2=CN=CN2)OC3C(C(C(C(O3)CO)O)O)OC4C(C(C(C(O4)CO)O)OC(=O)N)O)C(=O)N[C@H](C)[C@H]([C@H](C)C(=O)N[C@@H]([C@@H](C)O)C(=O)NCCC5=NC(=CS5)C6=NC(=CS6)C(=O)NCCC[S+](C)C)O [Bleomycin] + Cc1cc(Nc2cc(N3CCN(C)CC3)nc(Sc3ccc(NC(=O)C4CC4)cc3)n2)n[nH]1 [Tozasertib] (partner 0.1 µM); details: main component drawn
Method in brief: as §1

[4] = compound: COc1cc([C@@H]2c3cc4c(cc3[C@@H](O[C@@H]3O[C@@H]5CO[C@@H](C)O[C@H]5[C@H](O)[C@H]3O)[C@H]3COC(=O)[C@H]23)OCO4)cc(OC)c1O [Etoposide] + CC1(C)CCC(c2ccc(Cl)cc2)=C(CN2CCN(c3ccc(C(=O)NS(=O)(=O)c4ccc(N[C@H](CCN5CCOCC5)CSc5ccccc5)c(S(=O)(=O)C(F)(F)F)c4)cc3)CC2)C1 [Navitoclax] (partner 0.5 µM)
Method in brief: as §1

Cell Line | relative viability ([1]; first compound 0.01 µM) | relative viability ([1]; first compound 0.03162 µM) | relative viability ([1]; first compound 0.1 µM) | relative viability ([1]; first compound 0.3162 µM) | relative viability ([1]; first compound 1 µM) | relative viability ([2]; first compound 0.01 µM) | relative viability ([2]; first compound 0.03162 µM) | relative viability ([2]; first compound 0.1 µM) | relative viability ([2]; first compound 0.3162 µM) | relative viability ([2]; first compound 1 µM) | relative viability ([3]; first compound 0.01 µM) | relative viability ([3]; first compound 0.03162 µM) | relative viability ([3]; first compound 0.1 µM) | relative viability ([3]; first compound 0.3162 µM) | relative viability ([3]; first compound 1 µM) | relative viability ([4]; first compound 0.01 µM) | relative viability ([4]; first compound 0.03162 µM) | relative viability ([4]; first compound 0.1 µM) | relative viability ([4]; first compound 0.3162 µM) | relative viability ([4]; first compound 1 µM)
NCI-H441 | 0.194 | 0.251 | 0.177 | 0.191 | 0.128 | 0.51 | 0.474 | 0.292 | 0.179 | 0.148 | 0.53 | 0.611 | 0.471 | 0.332 | 0.275 | 0.535 | 0.633 | 0.571 | 0.168 | 0.189
NCI-H322M | 0.526 | 0.481 | 0.436 | 0.467 | 0.445 | 0.902 | 0.993 | 0.727 | 0.845 | 0.565 | 0.424 | 0.496 | 0.473 | 0.396 | 0.38 | 1.29 | 1.37 | 1.01 | 0.886 | 0.574
NCI-H2087 | 0.211 | 0.19 | 0.214 | 0.215 | 0.193 | – | 1.06 | 0.889 | 0.588 | 0.303 | – | 0.198 | 0.186 | 0.14 | 0.119 | – | 1.05 | 0.941 | 0.727 | 0.264
COR-L23 | 0.23 | 0.27 | 0.27 | 0.261 | 0.146 | 0.818 | 0.841 | 0.942 | 0.578 | 0.237 | 0.169 | 0.156 | 0.128 | 0.102 | 0.104 | 0.935 | 1.02 | 1.07 | 0.554 | 0.236
NCI-H2126 | 0.32 | 0.39 | 0.316 | 0.368 | 0.34 | 0.738 | 0.719 | 0.457 | 0.598 | 0.437 | 0.736 | 0.865 | 0.861 | 0.421 | 0.32 | 0.893 | 0.917 | 0.49 | 0.769 | 0.448
LC-2-ad | 0.52 | 0.509 | 0.557 | 0.455 | 0.452 | 0.809 | 0.976 | 0.863 | 0.624 | 0.248 | 0.395 | 0.354 | 0.34 | 0.247 | 0.276 | 0.586 | 0.446 | 0.405 | 0.276 | 0.183
NCI-H1915 | 0.471 | 0.569 | 0.506 | 0.459 | 0.375 | 1.1 | 1.16 | 1.06 | 0.994 | 0.851 | 0.317 | 0.347 | 0.229 | 0.162 | 0.133 | 0.826 | 0.814 | 0.815 | 0.725 | 0.621
NCI-H1793 | – | 0.321 | 0.2 | 0.305 | 0.29 | 0.692 | 0.989 | – | 0.716 | 0.429 | 0.339 | 0.308 | 0.362 | 0.191 | 0.171 | 0.382 | 0.564 | – | 0.387 | 0.324
NCI-H2023 | 0.312 | 0.201 | 0.351 | 0.201 | 0.173 | 0.617 | 0.646 | 0.651 | 0.444 | 0.171 | 0.237 | 0.283 | 0.222 | 0.116 | 0.109 | 0.99 | 0.964 | 0.929 | 0.423 | 0.347
COR-L 105 | 0.423 | 0.41 | 0.383 | 0.394 | 0.366 | 0.874 | 0.958 | 1.02 | 0.769 | 0.713 | 0.31 | 0.337 | 0.33 | 0.325 | 0.279 | 0.745 | 0.802 | 0.79 | 0.516 | 0.586
SK-LU-1 | 0.381 | 0.397 | 0.319 | 0.247 | 0.22 | 1.03 | 1.03 | 0.829 | 0.401 | 0.281 | 0.295 | 0.35 | 0.363 | 0.235 | 0.215 | 0.633 | 0.975 | 0.468 | 0.144 | 0.166
LXF-289 | 0.618 | 0.606 | 0.621 | 0.487 | 0.331 | 0.968 | 1.06 | 1 | 0.703 | 0.293 | 0.179 | 0.193 | 0.181 | 0.0822 | 0.0688 | 0.977 | 0.971 | 0.984 | 0.605 | 0.174
PC-3 [JPC-3] | 0.481 | 0.493 | 0.545 | 0.56 | 0.526 | 0.965 | 0.991 | 0.952 | 0.933 | 0.84 | 0.799 | 0.813 | 0.781 | 0.537 | 0.492 | 0.784 | 0.825 | 0.6 | 0.787 | 0.703
NCI-H1666 | 0.618 | 0.639 | 0.662 | 0.592 | 0.506 | 0.906 | 0.765 | 0.523 | 0.362 | 0.333 | 0.4 | 0.462 | 0.458 | 0.391 | 0.344 | 0.788 | 0.875 | 0.549 | 0.353 | 0.263
NCI-H2085 | 0.461 | 0.477 | 0.513 | 0.409 | 0.323 | 0.8 | 0.883 | 0.859 | 0.51 | 0.279 | 0.758 | 0.74 | 0.783 | 0.539 | 0.428 | 1.16 | 1.06 | 1.11 | 0.67 | 0.354

From the supplement of paper PMC10307832
